Reference: patent US11655225B2, “Antimycobacterial heterocyclic amides” (Crestone, Inc., priority 2018, dated 2023)
Converted amounts (≈) assume the structure as drawn.

What was measured:
M. abscessus [1] = test: MIC determination, CLSI M24-A; type: cell-based; settings: Mycobacteroides abscessus; for MIC90: range over compounds and species, read-out: MIC90 (concentration which inhibits 90% of strains); for MIC: CLSI M24-A
M. abscessus [2] = test: Bactericidal activity; type: cell-based
M. tuberculosis = test: Bactericidal activity; type: cell-based
[3] = test system: azithromycin-, doxycycline, and sulfamethoxazole-resistant M. abscessus; test: MIC against drug-resistant strains; type: cell-based; settings: for MIC: Mycobacteroides abscessus, clinically relevant resistant strains, M. abscessus, range over compounds and strains; for activity against resistant strains: azithromycin-, doxycycline, and sulfamethoxazole-resistant M. abscessus
M. chelonae = test: MIC determination, CLSI M24-A; type: cell-based; settings: Mycobacteroides chelonae, range over compounds and species, read-out: MIC90 (concentration which inhibits 90% of strains)
M. fortuitum = test: MIC determination, CLSI M24-A; type: cell-based; settings: Mycolicibacterium fortuitum, range over compounds and species, read-out: MIC90 (concentration which inhibits 90% of strains)
Mabs #21 = test: 28-day mouse model of chronic NTM lung infection, efficacy; type: in vivo, M. abscessus; settings: GM-CSF KO mice; 25 mg/kg once daily over 4 weeks, intratracheal microspray, 5% corn oil/saline emulsion
[4] = mouse, in vivo
physchem = settings: oil or lipid
Mabs ATCC19977 = type: cell-based; settings: isolated at 4×MIC on 7H11-ADC agar
proton motive force = test: Membrane potential and electrochemical pH gradient monitoring; type: cell-based; settings: Mtb intact cells and inverted membrane vesicles; data not shown

CC12CCCC(C(=O)Nc3nc4cc(Cl)cc(Cl)c4s3)(CCC1)C2 [Example 2, N-(5,7-dichloro-1,3-benzothiazol-2-yl)-5-methylbicyclo[3.3.1]nonane-1-carboxamide]
MIC90 (M. abscessus [1]): 0.12 to 1 µg/mL (≈ 0.313 to 2.61 µM) | bactericidal effect (M. abscessus [2]): bactericidal | bactericidal effect (M. tuberculosis): bactericidal | MIC [3]: 0.03 to 4 µg/mL (≈ 0.0783 to 10.4 µM) | activity against resistant strains [3]: active | MIC90 (M. chelonae): 0.12 to 1 µg/mL (≈ 0.313 to 2.61 µM) | MIC90 (M. fortuitum): 0.12 to 1 µg/mL (≈ 0.313 to 2.61 µM)

CC12CCCC(C(=O)Nc3nc4ccc(OC(F)(F)F)cc4s3)(CCC1)C2 [Example 5, 5-methyl-N-[6-(trifluoromethoxy)-1,3-benzothiazol-2-yl]bicyclo[3.3.1]nonane-1-carboxamide]
MIC90 (M. abscessus [1]): 0.12 to 1 µg/mL (≈ 0.301 to 2.51 µM) | MIC [3]: 0.03 to 4 µg/mL (≈ 0.0753 to 10 µM) | activity against resistant strains [3]: active | MIC90 (M. chelonae): 0.12 to 1 µg/mL (≈ 0.301 to 2.51 µM) | MIC90 (M. fortuitum): 0.12 to 1 µg/mL (≈ 0.301 to 2.51 µM)

CC12CC3CC(C)(C1)CC(C(=O)Nc1nc4ccc(OC(F)(F)F)cc4s1)(C3)C2 [Example 45, 3,5-dimethyl-N-[6-(trifluoromethoxy)-1,3-benzothiazol-2-yl]adamantane-1-carboxamide]
MIC90 (M. abscessus [1]): 0.12 to 1 µg/mL (≈ 0.283 to 2.36 µM) | MIC [3]: 0.03 to 4 µg/mL (≈ 0.0707 to 9.42 µM) | activity against resistant strains [3]: active | MIC90 (M. chelonae): 0.12 to 1 µg/mL (≈ 0.283 to 2.36 µM) | MIC90 (M. fortuitum): 0.12 to 1 µg/mL (≈ 0.283 to 2.36 µM) | lung bacterial load (CFU) versus vehicle control (Mabs #21): statistically significant CFU reduction | tolerability [4]: very well tolerated | solubility (physchem): ≤ 250 mg/mL

CC1CC(C(=O)Nc2nc3ccc(OC(F)(F)F)cc3s2)CC(C)(C)C1 (centres unmarked) [Example 46, 3,3,5-trimethyl-N-[6-(trifluoromethoxy)-1,3-benzothiazol-2-yl]cyclohexane-1-carboxamide]
MIC [3]: 0.03 to 4 µg/mL (≈ 0.0776 to 10.4 µM) | activity against resistant strains [3]: active

CC1CC(C(=O)Nc2nc3ccc(C(F)(F)F)cc3s2)CC(C)(C)C1 (centres unmarked) [Example 79, 3,3,5-trimethyl-N-[6-(trifluoromethyl)-1,3-benzothiazol-2-yl]cyclohexane-1-carboxamide]
mutations found in spontaneous-resistant mutants (Mabs ATCC19977): non-synonymous mutations in their mmpL3 gene (L551S, I306S, A309P)

CC1CC(C(=O)Nc2nc3c(F)cc(F)cc3s2)CC(C)(C)C1 (centres unmarked) [Example 80, N-(4,6-difluoro-1,3-benzothiazol-2-yl)-3,3,5-trimethylcyclohexane-1-carboxamide]
MIC [3]: 0.03 to 4 µg/mL (≈ 0.0886 to 11.8 µM) | activity against resistant strains [3]: active | mutations found in spontaneous-resistant mutants (Mabs ATCC19977): non-synonymous mutations in their mmpL3 gene (L551S, I306S, A309P) | effect on proton motive force (membrane potential, electrochemical pH gradient) (proton motive force): did not result from the collapse of the proton motive force

CC1CCCC(C(=O)Nc2nc3c(Cl)cccc3s2)C1 (centres unmarked) [Example 167, N-(4-chloro-1,3-benzothiazol-2-yl)-3-methylcyclohexane-1-carboxamide]
MIC (M. abscessus [1]): 2 to 32 µg/mL (≈ 6.48 to 104 µM)

CC1CCCC(C(=O)Nc2nc3ccc(Cl)cc3s2)C1 (centres unmarked) [Example 168, N-(6-chloro-1,3-benzothiazol-2-yl)-3-methylcyclohexane-1-carboxamide]
MIC (M. abscessus [1]): 2 to 32 µg/mL (≈ 6.48 to 104 µM)

CC1CCCC(C(=O)Nc2nc3c(F)cc(F)cc3s2)C1 (centres unmarked) [Example 169, N-(4,6-difluoro-1,3-benzothiazol-2-yl)-3-methylcyclohexane-1-carboxamide]
MIC (M. abscessus [1]): 2 to 32 µg/mL (≈ 6.44 to 103 µM)

CC1CCCC(C(=O)Nc2nc3ccc(F)cc3s2)C1 (centres unmarked) [Example 170, N-(6-fluoro-1,3-benzothiazol-2-yl)-3-methylcyclohexane-1-carboxamide]
MIC (M. abscessus [1]): 2 to 32 µg/mL (≈ 6.84 to 109 µM)

CC1(C(=O)Nc2nc3c(F)cc(F)cc3s2)CCCCC1 [Example 171, N-(4,6-difluoro-1,3-benzothiazol-2-yl)-1-methylcyclohexane-1-carboxamide]
MIC (M. abscessus [1]): 2 to 32 µg/mL (≈ 6.44 to 103 µM)

CC1(C(=O)Nc2nc3ccc(OC(F)F)cc3s2)CCCCC1 [Example 172, N-[6-(difluoromethoxy)-1,3-benzothiazol-2-yl]-1-methylcyclohexane-1-carboxamide]
MIC (M. abscessus [1]): 2 to 32 µg/mL (≈ 5.88 to 94 µM)

CC(C)(C)C(=O)Nc1nc2ccc(OC(F)(F)F)cc2s1 [Example 173, 2,2-dimethyl-N-[6-(trifluoromethoxy)-1,3-benzothiazol-2-yl]propanamide]
MIC (M. abscessus [1]): 2 to 32 µg/mL (≈ 6.28 to 101 µM)

CC1CC(C(=O)Nc2nc3cccc(O)c3s2)CC(C)(C)C1 (centres unmarked) [Example 174, N-(7-hydroxy-1,3-benzothiazol-2-yl)-3,3,5-trimethylcyclohexane-1-carboxamide]
MIC (M. abscessus [1]): 2 to 32 µg/mL (≈ 6.28 to 100 µM)

CC1CC(C(=O)Nc2nc3cc(F)c(F)cc3o2)CC(C)(C)C1 (centres unmarked) [Example 175, N-(5,6-difluoro-1,3-benzoxazol-2-yl)-3,3,5-trimethylcyclohexane-1-carboxamide]
MIC (M. abscessus [1]): 2 to 32 µg/mL (≈ 6.2 to 99.3 µM)

O=C(Nc1cc2ccccc2s1)C1CCCCC1 [Example 176, N-(1-benzothiophen-2-yl)cyclohexanecarboxamide]
MIC (M. abscessus [1]): 2 to 32 µg/mL (≈ 7.71 to 123 µM)

CC1CC(C(=O)Nc2nc3ccc(SC(F)(F)F)cc3s2)CC(C)(C)C1 (centres unmarked) [Example 177, 3,3,5-trimethyl-N-{6-[(trifluoromethyl)sulfanyl]-1,3-benzothiazol-2-yl}cyclohexane-1-carboxamide]
MIC (M. abscessus [1]): 2 to 32 µg/mL (≈ 4.97 to 79.5 µM)

CC1CC(C(=O)Nc2nc3ccc(F)cc3[nH]2)CC(C)(C)C1 (centres unmarked) [Example 178, N-(6-fluoro-1H-1,3-benzodiazol-2-yl)-3,3,5-trimethylcyclohexane-1-carboxamide]
MIC (M. abscessus [1]): 2 to 32 µg/mL (≈ 6.59 to 105 µM)

CC1CC(C(=O)Nc2nc3c(Cl)cccc3s2)CC(C)(C)C1 (centres unmarked) [Example 179, N-(4-chloro-1,3-benzothiazol-2-yl)-3,3,5-trimethylcyclohexane-1-carboxamide]
MIC (M. abscessus [1]): 2 to 32 µg/mL (≈ 5.94 to 95 µM)

Cc1cccc2sc(NC(=O)C3CCCC(C)C3)nc12 (centres unmarked) [Example 180, 3-methyl-N-(4-methyl-1,3-benzothiazol-2-yl)cyclohexane-1-carboxamide]
MIC (M. abscessus [1]): 2 to 32 µg/mL (≈ 6.93 to 111 µM)

COc1ccc2nc(NC(=O)C3CCCC(C)C3)sc2c1 (centres unmarked) [Example 181, N-(6-methoxy-1,3-benzothiazol-2-yl)-3-methylcyclohexane-1-carboxamide]
MIC (M. abscessus [1]): 2 to 32 µg/mL (≈ 6.57 to 105 µM)

CC1CCCC(C(=O)Nc2nc3ccccc3s2)C1 (centres unmarked) [Example 182, N-(1,3-benzothiazol-2-yl)-3-methylcyclohexane-1-carboxamide]
MIC (M. abscessus [1]): 2 to 32 µg/mL (≈ 7.29 to 117 µM)

Cc1cccc2sc(NC(=O)C3CC4CCC3C4)nc12 (centres unmarked) [Example 183, N-(4-methyl-1,3-benzothiazol-2-yl)bicyclo[2.2.1]heptane-2-carboxamide]
MIC (M. abscessus [1]): 2 to 32 µg/mL (≈ 6.98 to 112 µM)

CC12CCCC(C(=O)Nc3nc4cc(Cl)cc(Cl)c4o3)(CCC1)C2 [Example 184, N-(5,7-dichloro-1,3-benzoxazol-2-yl)-5-methylbicyclo[3.3.1]nonane-1-carboxamide]
MIC (M. abscessus [1]): 2 to 32 µg/mL (≈ 5.45 to 87.1 µM)

CC1(C(=O)Nc2nc3ccc(OC(F)(F)F)cc3s2)CC2CCC1O2 (centres unmarked) [Example 185, 2-methyl-N-[6-(trifluoromethoxy)-1,3-benzothiazol-2-yl]-7-oxabicyclo[2.2.1]heptane-2-carboxamide]
MIC (M. abscessus [1]): 2 to 32 µg/mL (≈ 5.37 to 85.9 µM)

CC1CC(C(=O)Nc2nc3ccc(N(C)C)cc3s2)CC(C)(C)C1 (centres unmarked) [Example 186, N-[6-(dimethylamino)-1,3-benzothiazol-2-yl]-3,3,5-trimethylcyclohexane-1-carboxamide]
MIC (M. abscessus [1]): 2 to 32 µg/mL (≈ 5.79 to 92.6 µM)

O=C(Nc1nc2ccccc2o1)C1CCCCCCC1 [Example 187, N-(1,3-benzoxazol-2-yl)cyclooctanecarboxamide]
MIC (M. abscessus [1]): 2 to 32 µg/mL (≈ 7.34 to 117 µM)

O=C(Nc1nc2ccc(OC(F)(F)F)cc2s1)C1CCCCC1 [Example 188, N-[6-(trifluoromethoxy)-1,3-benzothiazol-2-yl]cyclohexanecarboxamide]
MIC (M. abscessus [1]): 2 to 32 µg/mL (≈ 5.81 to 92.9 µM)

CC1CC(C(=O)Nc2nc3c(F)cc(F)cc3o2)CC(C)(C)C1 (centres unmarked) [Example 189, N-(4,6-difluoro-1,3-benzoxazol-2-yl)-3,3,5-trimethylcyclohexane-1-carboxamide]
MIC (M. abscessus [1]): 2 to 32 µg/mL (≈ 6.2 to 99.3 µM)

CC1CC(C(=O)Nc2nc3cc(Br)ccc3s2)CC(C)(C)C1 (centres unmarked) [Example 190, N-(5-bromo-1,3-benzothiazol-2-yl)-3,3,5-trimethylcyclohexane-1-carboxamide]
MIC (M. abscessus [1]): 2 to 32 µg/mL (≈ 5.24 to 83.9 µM)

COC1CCCC(C(=O)Nc2nc3ccc(Cl)cc3s2)C1 (centres unmarked) [Example 191, N-(6-chloro-1,3-benzothiazol-2-yl)-3-methoxycyclohexane-1-carboxamide]
MIC (M. abscessus [1]): 2 to 32 µg/mL (≈ 6.16 to 98.5 µM)

O=C(Nc1nc2ccc(C(F)(F)F)cc2s1)C1CCC2(CC1)CC2 [Example 192, N-[6-(trifluoromethyl)-1,3-benzothiazol-2-yl]spiro[2.5]octane-6-carboxamide]
MIC (M. abscessus [1]): 2 to 32 µg/mL (≈ 5.64 to 90.3 µM)
